Source: patent publication US20010006646A1, “METHOD AND SYSTEM FOR TREATMENT OF WOUNDS” (priority 1996, published 2001)

Assays:
[1] = system: 16 month old chronic interstitial, encapsulated, alpha-hemolytic, streptococcal channelling ulceration located on their right ankle; assay: Example 1: old chronic ankle wound, treatment of a human patient; type: in vivo; conditions: for outcome of conventional per orum treatments / outcome of conventional intravenous treatments: two week cycle each, not given in the same period
Protocol: The concepts of the invention will now be illustrated by the following Examples, which are intended to be purely exemplary and not limiting. The chemical debriding complex applied to the wound treated in example 1 was an aerosolized liquid composition comprising:
(§1) The formulation of the present invention used in the following examples was prepared in the form of a gel as follows:
(§2) (4) 1 ml of mixture (a), 1 ml of mixture (b) and 1 ml of mixture (c) were combined using a three step homogenization process to form the gel formulation of the present invention used in the following examples, namely
(§3) The dose of formulation used in treating the wounds in the following examples was based on the wound volume. The wound volume was measured in cubic centimeters using well known methods.
A human patient in normal health, suffered from a 16 month old chronic interstitial, encapsulated, alpha-hemolytic, streptococcal channelling ulceration located on their right ankle and tunnelled to the periosteum of the bone in their right ankle. […] Conventional intravenous treatments, including a two week cycle of penicillin and a two week cycle of amoxicillin, were unsuccessful. Note that the penicillin and the amoxicillin were not administered during the same two week period. Conventional per orum treatments, including a two week cycle of Keflex® and a two week cycle of Cipro®, were unsuccessful. Note that the Keflex and Cipro were not administered during the same two week period, nor were they administered during the same two week period as either of the penicillin or the amoxicillin.
(§4) The wound was subsequently treated using the gel formulation prepared as described above. Specifically, the given formulation was administered to the patient's wound as part of the following treatment procedure. Particularly, (i) the wound was prepared for administration of the given formulation by liberal application of a chemical debriding complex described above; (ii) after allowing the chemical debriding complex to bubble off, about three (3) minutes, a medicated pad comprising a sterile pad containing about three (3) ml of the gel formulation for each cubic centimeter of wound volume was placed over the wound and secured to the patient; (iii) the medicated pad was removed about twenty-four (24) hours later; (iv) steps (i) through (iii) were repeated. After seven (7) days of treatment, the wound was completely closed.

[2] = system: 18 month old chronic bed sore on the middle of their back; assay: Example 2: old chronic back wound (bed sore), treatment of a human patient; type: in vivo; conditions: dressings in conjunction with two serial courses of antibiotics (per orum Cipro 500 mg B.I.D., then 500 mg intravenous Keflex every eight hours)
Protocol: The chemical debriding complex applied to each of the wounds treated in examples 2 through 4 was an aerosolized liquid composition comprising:
as §1, §2, §3, §4
A human patient in very poor health suffering from CHF, diabetes, peripheral vascular disease, 10% body surface non-candidyal yeast infection, nutritional deficit, and “steroid” skin secondary to prednisone administration for auto-immune arthritis and from an 18 month old chronic bed sore on the middle of their back. Conventional treatments, including granulex, zinc oxide, duoderm and sorbasan dressings in conjunction with two serial courses of oral antibiotics, per orum Cipro 500 mg B.I.D. followed by 500 mg intravenous Keflex every eight hours, were unsuccessful at stimulating the healing of the wound. […]

[3] = system: six (6) month old chronic pressure-friction wound on both haunches; assay: Example 3: canine pressure wound; type: in vivo, Borzoi; conditions: duoderm post shaving; before treatment with the formulation

| Compound | outcome of conventional per orum treatments [1] | outcome of conventional treatments at stimulating the healing of the wound [2] | outcome of conventional intravenous treatments [1] | outcome of conventional topical treatments ([1]; topical, before treatment with the gel formulation) | outcome of conventional treatments [3] |
| --- | --- | --- | --- | --- | --- |
| O=C(O)c1cn(C2CC2)c2cc(N3CCNCC3)c(F)cc2c1=O [Cipro] | unsuccessful | unsuccessful | – | – | – |
| CC1=C(C(=O)O)N2C(=O)[C@@H](NC(=O)[C@H](N)c3ccccc3)[C@H]2SC1 [Keflex] | unsuccessful | unsuccessful | – | – | – |
| CC1(C)S[C@@H]2[C@H](NC(=O)[C@H](N)c3ccc(O)cc3)C(=O)N2[C@H]1C(=O)O [amoxicillin] | – | – | unsuccessful | – | – |
| [O]=[Zn] [zinc oxide] | – | unsuccessful | – | repeatedly unsuccessful | repeatedly unsuccessful |
| penicillin | – | – | unsuccessful | – | – |
